ChEMBL document CHEMBL1152463 (Antimicrob Agents Chemother, 2008)
Values after ≈ are worked out from the molar mass of the structure shown. Active and inactive are the calls of the source. The rule behind the calls is not given here.

Tests used:
[1] = test system: Leishmania donovani; assay: Antileishmanial activity against Leishmania donovani MHOH/IN/1983/AD83 promastigotes assessed as inhibition of calcium uptake; assay type: functional, organism-based
[2] = test system: Mus musculus; assay: Toxicity in BALB/c mouse at 10 mg/kg, po; assay type: organism-based; design: dose 10 mg/kg, route oral; conditions: in vivo
[3] = test system: Mus musculus; assay: Toxicity in BALB/c mouse assessed as kidney function at 10 mg/kg, po; assay type: organism-based; design: dose 10 mg/kg, route oral; conditions: in vivo
[4] = test system: Leishmania donovani; assay: Antileishmanial activity against Leishmania donovani MHOH/IN/1983/AD83 promastigotes assessed as growth inhibition after 3 days by MTT assay; assay type: functional, organism-based; conditions: MHOH/IN/1983/AD83, 72 h
[5] = test system: Leishmania donovani; assay: Antileishmanial activity against Leishmania donovani MHOH/IN/1983/AD83 amastigotes infected in BALB/c mouse peritoneal macrophage at 3 ug/mL treated 6 hrs after infection measured after 48 hrs using Giemsa staining relative to control; assay type: functional
[6] = test system: Leishmania donovani; assay: Antileishmanial activity against Leishmania donovani MHOH/IN/1983/AD83 amastigotes infected in BALB/c mouse peritoneal macrophage assessed as cell killing at 15 ug/mL treated 6 hrs after infection measured after 48 hrs using Giemsa staining relative to control; assay type: functional
[7] = test system: Leishmania donovani; assay: Antileishmanial activity against Leishmania donovani MHOH/IN/1983/AD83 promastigotes assessed as viability after 2 hrs by MTT assay; assay type: functional, organism-based; conditions: MHOH/IN/1983/AD83, 2 h
[8] = test system: Leishmania donovani; assay: Antileishmanial activity against Leishmania donovani MHOH/IN/1983/AD83 promastigotes assessed as cell killing at 30 ug/mL after 2 hrs by MTT assay relative to control; assay type: functional
[9] = test system: Mus musculus; assay: Toxicity in BALB/c mouse assessed as liver function at 10 mg/kg, po; assay type: organism-based; design: dose 10 mg/kg, route oral; conditions: in vivo
[10] = test system: Leishmania donovani; assay: Antileishmanial activity against Leishmania donovani MHOH/IN/1983/AD83 promastigotes assessed as increase in caspase 3 like activation in parasite cytosol at 3 to 30 ug/mL after 2 hrs by spectrofluorimetric analysis; assay type: functional, organism-based
[11] = Toxicity in BALB/c mouse peritoneal macrophage assessed as toxic dose; assay type: cell-based; conditions: peritoneal macrophage cell
[12] = test system: Leishmania donovani; assay: Antileishmanial activity against Leishmania donovani MHOH/IN/1983/AD83 amastigotes infected in BALB/c mouse peritoneal macrophage treated 6 hrs after infection measured after 48 hrs using Giemsa staining relative to control; assay type: functional, organism-based
[13] = test system: Mus musculus; assay: Toxicity in BALB/c mouse assessed as heart function at 10 mg/kg, po; assay type: organism-based; design: dose 10 mg/kg, route oral; conditions: in vivo
[14] = test system: Leishmania donovani; assay: Antileishmanial activity against Leishmania donovani MHOH/IN/1983/AD83 promastigotes assessed as decrease in rate of oxygen consumption at 30 ug/mL after 2 hrs by polarographically with Clark electrode; assay type: functional; design: scale not given: the % may be the effect or the level left

Row | Compound | Activity [1] | Activity [2] | Activity [3] | IC50 [4] | Activity [5] | Activity [6] | EC50 [7] | Activity [8] | Activity [9] | Activity [10] | Activity [11] | Activity [12] | IC50 [12] | Activity [13] | Activity [14]
1 | COc1ccc([C@@H]2Sc3ccccc3N(CCN(C)C)C(=O)[C@@H]2OC(C)=O)cc1 | Active |  |  |  |  |  |  |  |  |  |  |  |  |  | 
2 | COc1ccc(CCN(C)CCCC(C#N)(c2ccc(OC)c(OC)c2)C(C)C)cc1OC (stereo unspecified) | Active |  |  |  |  |  |  |  |  |  |  |  |  |  | 
3 | CCOC(=O)C1=C(COCCN)NC(C)=C(C(=O)OC)C1c1ccccc1Cl (stereo unspecified) [AMLODIPINE] | Active | Non-toxic | Non-toxic | 0.085 µg/mL (≈ 0.208 µM) | >50% | 96.39% | 2 µg/mL (≈ 4.89 µM) | 98.76% | Non-toxic | Active | > 100 µg/mL | Dose-dependent effect | 2.1 µg/mL (≈ 5.14 µM) | Non-toxic | 
4 | CCOC(=O)C1=C(C)NC(C)=C(C(=O)OCC)C1c1ccccc1/C=C/C(=O)OC(C)(C)C [LACIDIPINE] | Active | Non-toxic | Non-toxic | 1.45 µg/mL (≈ 3.18 µM) | >50% | 85.66% | 2.5 µg/mL (≈ 5.49 µM) | 90.5% | Non-toxic | Active | 150 µg/mL | Dose-dependent effect | 2.8 µg/mL (≈ 6.15 µM) | Non-toxic | 78%
